Experimental data as given in ChEMBL document CHEMBL5137054, “Xyloketal B Reverses Nutritional Hepatic Steatosis, Steatohepatitis, and Liver Fibrosis through Activation of the PPARα/PGC1α Signaling Pathway” (J Nat Prod, 2022).
The source made the active and inactive calls. The calls are words filed in the database; no cut-off is given here.

How the values were obtained:
[1] = tested on: Mus musculus; assay: Anti-inflammatory activity against MCD-induced C57BL/6J mouse model of nonalcoholic steatohepatitis assessed as reduction in necroinflammation foci in liver at 20 to 40 mg/kg/day, ip administered from week 3 to week 4 by H&E staining based light microscopic analysis; format: functional, organism-based; settings: dose 20-40 mg/kg/day, time 2.0 weeks
[2] = tested on: Mus musculus; assay: Upregulation of ACAA1 enzyme expression in liver of HFD-induced C57BL/6J mouse model of NAFL at 15 mg/kg/day, ip administered from week 7 to week 12 by immunoblotting analysis; format: functional, organism-based; settings: time 6.0 weeks
[3] = tested on: Mus musculus; assay: Upregulation of cytochrome P450-4A10 enzyme expression in liver of HFD-induced C57BL/6J mouse model of NAFL at 15 mg/kg/day, ip administered from week 7 to week 12 by immunoblotting analysis; format: functional, organism-based; settings: time 6.0 weeks
[4] = tested on: Mus musculus; assay: Reduction in hepatic steatosis in HFD-induced C57BL/6J mouse model of NAFL assessed as reduction in size of lipid droplets in hepatocytes at 20 to 40 mg/kg/day, ip administered from week 7 to week 12 by H&E staining analysis; format: functional, organism-based; settings: dose 20-40 mg/kg/day, time 6.0 weeks
[5] = tested on: Mus musculus; assay: Reduction in hepatic steatosis in HFD-induced C57BL/6J mouse model of NAFL assessed as reduction in serum cholesterol level at 20 to 40 mg/kg/day, ip administered from week 7 to week 12; format: functional, organism-based; settings: dose 20-40 mg/kg/day, time 6.0 weeks
[6] = tested on: Mus musculus; assay: Antifibrotic activity against MCD-induced C57BL/6J mouse model of liver fibrosis assessed as reduction in collagen I level in liver at 20 to 40 mg/kg, ip administered from week 3 to week 6 by sirius red staining based light microscopic analysis; format: functional, organism-based; settings: dose 20-40 mg/kg, time 4.0 weeks
[7] = tested on: Mus musculus; assay: In vivo activation of PPARalpha/PGC1alpha pathway in HFD-induced C57BL/6J mouse model of NAFL assessed as increase in PPARalpha expression in liver administered intraperitoneally from week 7 to week 12 by immunoblotting analysis; format: functional, organism-based; settings: dose 20-40 mg/kg/day, route ip, time 6.0 weeks, DDE = dose-dependent effect
[8] = tested on: Mus musculus; assay: Antifibrotic activity against MCD-induced C57BL/6J mouse model of liver fibrosis assessed as reduction in MMP2 level in liver administered intraperitoneally from week 3 to week 6 by immunoblotting analysis; format: functional, organism-based; settings: dose 20-40 mg/kg, route ip, time 4.0 weeks, DDE = dose-dependent effect
[9] = tested on: Mus musculus; assay: Upregulation of Cyp4a14 gene transcriptional level in HFD-induced C57BL/6J mouse model of NAFL at 20 to 40 mg/kg/day, ip administered from week 7 to week 12 by qRT-PCR analysis; format: functional, organism-based; settings: dose 20-40 mg/kg/day, time 6.0 weeks
[10] = tested on: Mus musculus; assay: Reduction in hepatic steatosis in HFD-induced C57BL/6J mouse model of NAFL assessed as reduction in HFD-induced body weight gain at 20 to 40 mg/kg/day, ip administered from week 7 to week 12; format: functional, organism-based; settings: dose 20-40 mg/kg/day, time 6.0 weeks
[11] = tested on: Mus musculus; assay: Upregulation of peroxisomal acyl-coenzyme A oxidase-1 enzyme expression in liver of HFD-induced C57BL/6J mouse model of NAFL administered intraperitoneally from week 7 to week 12 by immunoblotting analysis; format: functional; settings: dose 20-40 mg/kg/day, route ip, time 6.0 weeks, DDE = dose-dependent effect
[12] = tested on: Mus musculus; assay: Reduction in hepatic steatosis in HFD-induced C57BL/6J mouse model of NAFL assessed as increase in serum ApoE level at 20 to 40 mg/kg/day, ip administered from week 7 to week 12; format: functional, organism-based; settings: dose 20-40 mg/kg/day, time 6.0 weeks
[13] = tested on: Mus musculus; assay: Reduction in hepatic steatosis in HFD-induced C57BL/6J mouse model of NAFL assessed as reduction in serum AST/ALT ratio at 20 to 40 mg/kg/day, ip administered from week 7 to week 12; format: functional, organism-based; settings: dose 20-40 mg/kg/day, time 6.0 weeks
[14] = tested on: Mus musculus; assay: Upregulation of Cpt1c gene transcriptional level in HFD-induced C57BL/6J mouse model of NAFL at 20 to 40 mg/kg/day, ip administered from week 7 to week 12 by qRT-PCR analysis; format: functional, organism-based; settings: dose 20-40 mg/kg/day, time 6.0 weeks
[15] = tested on: Mus musculus; assay: Upregulation of long-chain specific acyl-CoA dehydrogenase gene transcriptional level in HFD-induced C57BL/6J mouse model of NAFL at 20 to 40 mg/kg/day, ip administered from week 7 to week 12 by qRT-PCR analysis; format: functional, organism-based; settings: dose 20-40 mg/kg/day, time 6.0 weeks
[16] = tested on: Mus musculus; assay: Upregulation of Acaa1a gene transcriptional level in HFD-induced C57BL/6J mouse model of NAFL at 20 to 40 mg/kg/day, ip administered from week 7 to week 12 by qRT-PCR analysis; format: functional, organism-based; settings: dose 20-40 mg/kg/day, time 6.0 weeks
[17] = tested on: Mus musculus; assay: Upregulation of peroxisomal bifunctional enzyme expression in liver of HFD-induced C57BL/6J mouse model of NAFL administered intraperitoneally from week 7 to week 12 by immunoblotting analysis; format: functional; settings: dose 20-40 mg/kg/day, route ip, time 6.0 weeks, DDE = dose-dependent effect
[18] = tested on: Mus musculus; assay: Reduction in hepatic steatosis in HFD-induced C57BL/6J mouse model of NAFL assessed as reduction in HFD-induced relative liver weight at 20 to 40 mg/kg/day, ip administered from week 7 to week 12; format: functional, organism-based; settings: dose 20-40 mg/kg/day, time 6.0 weeks
[19] = tested on: Mus musculus; assay: Reduction in hepatic steatosis in HFD-induced C57BL/6J mouse model of NAFL assessed as reduction in serum AST level at 20 to 40 mg/kg/day, ip administered from week 7 to week 12; format: functional, organism-based; settings: dose 20-40 mg/kg/day, time 6.0 weeks
[20] = tested on: Mus musculus; assay: Reduction in hepatic steatosis in HFD-induced C57BL/6J mouse model of NAFL assessed as reduction in serum LDL level at 20 to 40 mg/kg/day, ip administered from week 7 to week 12; format: functional, organism-based; settings: dose 20-40 mg/kg/day, time 6.0 weeks
[21] = tested on: Mus musculus; assay: Anti-inflammatory activity against MCD-induced C57BL/6J mouse model of nonalcoholic steatohepatitis assessed as downregulation of interleukin 6 expression in liver at 20 to 40 mg/kg/day, ip administered from week 3 to week 4 by immunoblotting analysis analysis; format: functional, organism-based; settings: dose 20-40 mg/kg/day, time 2.0 weeks
[22] = Toxicity in C57BL/6J mouse assessed as effect on serum ApoE level at 40 mg/kg, ip; format: organism-based; settings: in vivo
[23] = tested on: Mus musculus; assay: Antifibrotic activity against MCD-induced C57BL/6J mouse model of liver fibrosis assessed as reduction in collagen III level in liver at 20 to 40 mg/kg, ip administered from week 3 to week 6 by sirius red staining based light microscopic analysis; format: functional, organism-based; settings: dose 20-40 mg/kg, time 4.0 weeks
[24] = tested on: Mus musculus; assay: Anti-inflammatory activity against MCD-induced C57BL/6J mouse model of nonalcoholic steatohepatitis assessed as downregulation of COX-2 expression in liver at 20 to 40 mg/kg/day, ip administered from week 3 to week 4 by immunoblotting analysis; format: functional, organism-based; settings: dose 20-40 mg/kg/day, time 2.0 weeks
[25] = tested on: Mus musculus; assay: Upregulation of Cpt1a gene transcriptional level in HFD-induced C57BL/6J mouse model of NAFL at 20 to 40 mg/kg/day, ip administered from week 7 to week 12 by qRT-PCR analysis; format: functional, organism-based; settings: dose 20-40 mg/kg/day, time 6.0 weeks
[26] = Toxicity in C57BL/6J mouse assessed as effect on serum ALT level at 40 mg/kg, ip; format: organism-based; settings: in vivo
[27] = tested on: Mus musculus; assay: Antifibrotic activity against MCD-induced C57BL/6J mouse model of liver fibrosis assessed as reduction in MMP3 level in liver administered intraperitoneally from week 3 to week 6 by immunoblotting analysis; format: functional, organism-based; settings: dose 20-40 mg/kg, route ip, time 4.0 weeks, DDE = dose-dependent effect
[28] = Toxicity in C57BL/6J mouse assessed as effect on body weight at 40 mg/kg, ip; format: organism-based; settings: in vivo
[29] = tested on: Mus musculus; assay: Reduction in hepatic steatosis in HFD-induced C57BL/6J mouse model of NAFL assessed as reduction in serum triglyceride level at 20 to 40 mg/kg/day, ip administered from week 7 to week 12; format: functional, organism-based; settings: dose 20-40 mg/kg/day, time 6.0 weeks

## C[C@H]1CO[C@]2(C)Oc3cc(O)c4c(c3C[C@H]12)O[C@@]1(C)OC[C@H](C)[C@H]1C4
[1]
  Activity: Active
[2]
  Activity: Active
[3]
  Activity: Active
[4]
  Activity: Active
[5]
  Activity: Active
[6]
  Activity: Active
[7]
  Activity: Dde
[8]
  Activity: Dde
[9]
  Activity: Active
[10]
  Activity: Active
[11]
  Activity: Dde
[12]
  Activity: Active
[13]
  Activity: Active
[14]
  Activity: Active
[15]
  Activity: Active
[16]
  Activity: Active
[17]
  Activity: Dde
[18]
  Activity: Active
[19]
  Activity: Active
[20]
  Activity: Active
[21]
  Activity: Active
[22]
  Activity: Non-Toxic
[23]
  Activity: Active
[24]
  Activity: Active
[25]
  Activity: Active
[26]
  Activity: Non-Toxic
[27]
  Activity: Dde
[28]
  Activity: Non-Toxic
[29]
  Activity: Active
